The values below come from BindingDB's records for doi:10.1016/j.bmcl.2005.07.021 (Johnson & Johnson Pharmaceutical Research and Development, 2005).

This assay concerns the target Glycogen phosphorylase, muscle form (Oryctolagus cuniculus) (UniProt P00489). Put plainly: Inhibitory concentration against glycogen phosphorylase of rabbit muscle.

Glycogen phosphorylase, muscle form (Oryctolagus cuniculus), sequence (P00489 whole entry, looked up): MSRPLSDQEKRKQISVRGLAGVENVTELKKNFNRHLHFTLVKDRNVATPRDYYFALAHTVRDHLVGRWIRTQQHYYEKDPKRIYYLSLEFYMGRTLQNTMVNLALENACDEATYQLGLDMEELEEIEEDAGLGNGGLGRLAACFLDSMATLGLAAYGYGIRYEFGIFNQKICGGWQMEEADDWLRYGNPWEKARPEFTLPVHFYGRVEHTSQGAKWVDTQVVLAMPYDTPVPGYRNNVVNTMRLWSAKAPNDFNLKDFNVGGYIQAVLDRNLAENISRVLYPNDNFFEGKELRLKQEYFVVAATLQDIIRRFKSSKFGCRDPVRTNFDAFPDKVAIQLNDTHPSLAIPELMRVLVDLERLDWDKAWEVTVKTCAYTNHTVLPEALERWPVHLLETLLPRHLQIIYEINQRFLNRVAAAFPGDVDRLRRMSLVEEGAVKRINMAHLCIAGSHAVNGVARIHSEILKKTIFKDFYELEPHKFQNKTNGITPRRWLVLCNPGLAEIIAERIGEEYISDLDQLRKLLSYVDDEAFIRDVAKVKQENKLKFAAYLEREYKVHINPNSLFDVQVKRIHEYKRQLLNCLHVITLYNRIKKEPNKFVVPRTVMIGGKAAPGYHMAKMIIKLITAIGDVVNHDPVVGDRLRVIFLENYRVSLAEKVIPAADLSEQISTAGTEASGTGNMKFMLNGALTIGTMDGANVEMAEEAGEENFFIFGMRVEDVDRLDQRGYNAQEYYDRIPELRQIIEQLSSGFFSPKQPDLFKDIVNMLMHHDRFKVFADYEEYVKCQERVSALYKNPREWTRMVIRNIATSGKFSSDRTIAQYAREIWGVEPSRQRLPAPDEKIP

Turning to `O=C(O)Cn1c(=O)c(Nc2ccc(C(=O)NCc3cccs3)cc2)nc2ccccc21` [(2-Oxo-3-{4-[(thiophen-2-ylmethyl)-carbamoyl]-phenylamino}-2H-quinoxalin-1-yl)-acetic acid], the IC50 (commonly the point on the concentration scale where inhibition reaches its midpoint) came to 5700 nM.
For `O=c1[nH]c2ccccc2nc1Nc1ccccc1` [3-Phenylamino-1H-quinoxalin-2-one] the value was 2500 nM; for `Cn1c(=O)c(Nc2ccc(-c3ccoc3)cc2)nc2ccccc21` [3-(4-Furan-3-yl-phenylamino)-1-methyl-1H-quinoxalin-2-one], 5000 nM.
The molecule `Cn1c(=O)c(Nc2ccc(NC(=O)c3ccco3)cc2)nc2ccccc21` [Furan-2-carboxylic acid [4-(4-methyl-3-oxo-3,4-dihydro-quinoxalin-2-ylamino)-phenyl]-amide] registered an IC50 of 2500 nM.
The molecule `Cn1c(=O)c(Nc2ccc(-c3ccc[nH]3)cc2)nc2ccccc21` [1-Methyl-3-[4-(1H-pyrrol-2-yl)-phenylamino]-1H-quinoxalin-2-one] came in with an IC50 of 2500 nM.
For `CC(C)n1c(=O)c(Nc2ccc(C(=O)NCc3cccs3)cc2)nc2ccccc21` [4-(4-Isopropyl-3-oxo-3,4-dihydro-quinoxalin-2-ylamino)-N-thiophen-2-ylmethyl-benzamide] the value was over 10000 nM; for `CN(C)CCn1c(=O)c(Nc2ccc(C(=O)NCc3cccs3)cc2)nc2ccccc21` [4-[4-(2-Dimethylamino-ethyl)-3-oxo-3,4-dihydro-quinoxalin-2-ylamino]-N-thiophen-2-ylmethyl-benzamide], 710 nM.
For `Cn1c(=O)c(Nc2ccc(NC(=O)c3ccc[nH]3)cc2)nc2ccccc21` [1H-Pyrrole-2-carboxylic acid [4-(4-methyl-3-oxo-3,4-dihydro-quinoxalin-2-ylamino)-phenyl]-amide] the value was over 10000 nM; for `Cn1c(=O)c(Nc2cccc(NC(=O)c3ccno3)c2)nc2ccccc21` [Isoxazole-5-carboxylic acid [3-(4-methyl-3-oxo-3,4-dihydro-quinoxalin-2-ylamino)-phenyl]-amide], over 10000 nM; for `CN(c1ccc(C(=O)Nc2ccon2)cc1)c1nc2ccccc2n(C)c1=O`, over 10000 nM.
Take `O=C(NCc1cccs1)c1ccc(Nc2nc3ccccc3n(CCO)c2=O)cc1` [4-[4-(2-Hydroxy-ethyl)-3-oxo-3,4-dihydro-quinoxalin-2-ylamino]-N-thiophen-2-ylmethyl-benzamide]: it took 320 nM to reach half-maximal inhibition (IC50).
For `Cn1c(=O)c(Nc2ccc(C(=O)NCCc3cccs3)cc2)nc2ccccc21` [4-(4-Methyl-3-oxo-3,4-dihydro-quinoxalin-2-ylamino)-N-(2-thiophen-2-yl-ethyl)-benzamide] the value was over 10000 nM.
